As usually defined, the IC50 is the concentration at which inhibition is half-maximal.

In the test the target is T1, androgen receptor in MDA-MB453-MMTV clone 54-19 cells (Homo sapiens, UniProt P10275).
T1 sequence (P10275 1-920 Q868H): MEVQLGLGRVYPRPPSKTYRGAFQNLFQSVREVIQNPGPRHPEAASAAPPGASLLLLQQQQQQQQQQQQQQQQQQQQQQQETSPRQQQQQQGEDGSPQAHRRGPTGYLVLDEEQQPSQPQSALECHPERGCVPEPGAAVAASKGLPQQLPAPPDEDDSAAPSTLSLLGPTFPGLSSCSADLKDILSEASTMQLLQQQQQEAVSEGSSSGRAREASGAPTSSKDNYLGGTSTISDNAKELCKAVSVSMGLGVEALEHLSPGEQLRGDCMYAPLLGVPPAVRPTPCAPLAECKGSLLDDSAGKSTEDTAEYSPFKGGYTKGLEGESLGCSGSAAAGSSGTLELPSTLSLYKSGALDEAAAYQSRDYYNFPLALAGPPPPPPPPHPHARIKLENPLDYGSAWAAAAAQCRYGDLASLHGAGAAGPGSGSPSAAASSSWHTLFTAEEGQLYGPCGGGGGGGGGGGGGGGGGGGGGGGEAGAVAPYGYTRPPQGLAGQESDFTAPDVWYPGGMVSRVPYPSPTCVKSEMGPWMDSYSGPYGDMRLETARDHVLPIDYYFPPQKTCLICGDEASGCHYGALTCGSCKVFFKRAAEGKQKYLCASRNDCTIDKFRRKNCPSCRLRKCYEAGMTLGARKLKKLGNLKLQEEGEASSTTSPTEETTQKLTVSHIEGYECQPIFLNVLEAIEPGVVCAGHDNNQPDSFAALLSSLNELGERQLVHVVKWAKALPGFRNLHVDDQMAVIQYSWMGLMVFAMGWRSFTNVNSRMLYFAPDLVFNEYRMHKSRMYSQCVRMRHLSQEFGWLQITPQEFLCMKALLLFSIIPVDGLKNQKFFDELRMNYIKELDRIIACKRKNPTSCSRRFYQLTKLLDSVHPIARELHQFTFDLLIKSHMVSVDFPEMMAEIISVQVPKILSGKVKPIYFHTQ
Nature of the test: AR antagonist cell assay (MMTV-luciferase reporter, 100 pM DHT). In kind it is cell-based. The note with it: read-out: AR Cell IC50; MDA-MB453-MMTV clone 54-19, inhibition of 100 pM DHT induced luciferase, 17 hr; mean of multiple tests. On the procedure: The compounds ability to antagonize the effects of androgen on the androgen receptor were determined in a whole cell assay as described immediately below.
Experimental Procedure for AR Antagonist Cell Assay
Cell line: MDA-MB453-MMTV clone 54-19. This cell line is a stable transfected cell line with MDA-MB453 cell background (a human breast tumor cell line expressing androgen receptor). A MMTV minimal promoter containing ARE was first cloned in front of a firefly luciferase reporter gene. Then the cascade was cloned into transfection vector pUV120puro. Electroporation method was used for transfecting MDA-MB-453 cell. Puromycin resistant stable cell line was selected. Cell Culture Media and Reagents:
Culture medium: DMEM (high glucose, Gibco cat #: 11960-044), 10% FBS, and 1% L-glutamine
Plating medium: DMEM (phenol red free), 10% charcoal treated HyClone serum, 1% L-glutamine
Assay medium: DMEM (phenol red free), 1% charcoal treated HyClone serum, 1% L-glutamine, and 1% penicillin/streptomycin
3X luciferase buffer: 2% beta-mercaptoethanol, 0.6% ATP, 0.0135% luciferine in cell lysis buffer
• 1. Cells are maintained in culture medium, splitting cells when they reach 80-90% confluence • 2. To test compounds, 10,000 cells/well are plated to opaque 96 cell culture plate in 100 ul/well plating medium, culture for overnight at 37° C. in cell culture incubator • 3. Carefully remove plating medium, then add 80 ul/well of pre-warmed assay medium, add 10 ul/well testing compound (final concentration at) 1000 nM, 200 nM, 40 nM, 8 nM, 1.6 nM, and 0.32 nM), incubate at 37° C. for 30 minutes • 4. Add 10 ul/well freshly prepared DHT (final concentration at 100 pM) to each well, incubate at 37° C. for 17 hr (overnight) • 5. Add 50 ul/well 3X luciferase buffer, incubate at room temperature for 5 minutes, then count on Luminometer
The fold induction over background by 100 pM DHT in the absence of testing compounds is standardized as 100% and experimental result is expressed as percentage of inhibition by testing compounds.
The results are reported as the mean of multiple tests as described below (the numbers of tests are indicated in the footnote). N.D. denotes that the compound was not tested.
A general note: In a reporter assay the amount or activity of a reporter protein is the signal.
In the case of `N#Cc1ccc(OCCCCCOc2ccc(C#N)c(C(F)(F)F)c2)cc1C(F)(F)F` [Example 24], the IC50 was 64 nM. With `N#Cc1ccc(OC(CO)COc2ccccc2)cc1C(F)(F)F` (stereo not drawn) [Example 28, 4-(1-Hydroxymethyl-2-phenoxy-ethoxy)-2-trifluoromethyl-benzonitrile], the IC50 came to 69 nM. The value for `COCC(COc1ccccc1)Oc1ccc(C#N)c(C(F)(F)F)c1` (stereo not drawn) [Example 27, 4-(1-Methoxymethyl-2-phenoxy-ethoxy)-2-trifluoromethyl-benzonitrile] was 19 nM.

(Values after US7473711B2, “Androgen modulators” (Pfizer Inc., priority 2004, dated 2009).)
